Data reported in patent publication US4317768A, “Dihydropyridine derivatives as stabilizers for vinyl chloride polymers” (priority 1977, dated 1982).
Values belong to the compound of their own block, whether it stands above or below them.

Key:
[1] = Photostabilizing power, sheets exposed to the sun, co-polymer (a)
Description: (§1) The sheets were exposed to the sun and their colorations were also determined according to the GARDNER method.

[2] = Thermostability, flexible co-polymer (b), Metrastat oven 160° C.; conditions: 0.2 part
Description: (§2) The study of the static thermostability of vinyl co-polymers was carried out according to the GARDNER method described above and, also in a more detailed manner in British Patent No. 1,489,685.
(b) Flexible co-polymer vinyl chloride-vinyl acetate.
(§3) The following compound was prepared:
The resin was allowed to gel for 5 minutes at 120° C. and the sheets were heated at 160° C. in a Metrastat oven.

[3] = Photostabilizing power, sheets exposed to the sun, rigid co-polymer (b)
Description: as §1

[4] = Polarographic study of the oxidation potential; format: physicochemical; conditions: acetonitrile, 0.1 M lithium perchlorate, vitrous carbon electrode, calomel reference
Procedure, shortened: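 Oxidation potential by polarography on a rotating vitreous carbon electrode (2,500 r.p.m.) with calomel reference and platinum counter electrode, in 0.1 M lithium perchlorate in dry acetonitrile. Scan 0 to 2 V at 10 mV/second; compounds at about 0.3×10^-3 mol/liter.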

[5] = Comparison with 2-phenyl-indole, vinyl chloride-vinylidene chloride co-polymer, 210° C.; conditions: 0.3 part
Description: A second test was made using the following compound:
The sheets were heated in a ventilated oven at 210° C. and the following results were obtained: […]

[6] = Thermostability, flexible co-polymer (c), Metrastat oven 160° C.; conditions: 0.3 part
Description: as §2
(c) Flexible co-polymer vinyl chloride-vinyl acetate
as §3
The sheets were heated in a Metrastat oven at 160° C. and the following results were obtained: […]

[7] = Static thermostability (GARDNER method), rigid PVC sheets, 210° C., 0.3 part stabilizer; conditions: for coloration of the resins, in words: 0 to 3 minutes
Procedure, shortened: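 Rigid sheets calendered at 160° C. from powdered PVC resin with 0.3 part by weight stabilizer (dihydropyridine or 2-phenyl-indole reference) plus usual ingredients. Sheets heated in oven at 210° C., removed every three minutes over 21 minutes until incipient carbonization. Coloration scored against GARDNER scale reference figures.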

[8] = Comparison with stabilizer G1, 0.1 part, 185° C.
Description: A test was also carried out with the following compound:
Another test was made with the same resin but containing 0.1 part of stabilizer.

[9] = Static thermostability (GARDNER method), rigid PVC sheets, 185° C., 0.3 part stabilizer
Description: This study was carried out according to the GARDNER method, described in British Pat. No. 1,489,685.
The reference substance was 2-phenyl-indole, a well-known and widely used stabilizer.
The stabilizer (dihydropyridine or 2-phenyl-indole) and the other usual ingredients were mixed with powdered vinyl resins and the mixtures were calendered at a temperature of 160° C. to give rigid sheets.
The sheets were then heated in a thermostated oven (185° C. or 210° C.) for different intervals of time until incipient carbonization.
The coloration of the samples was compared to a standard scale of coloration, known as the GARDNER scale and was expressed in terms of the reference figures of the GARDNER scale.
This study was carried out with the following resin:
Polyvinyl chloride resin
SL 2016 is a solution of zinc-2-ethyl-hexanoate in a mixture of hydrocarbons boiling between 158° C. and 184° C.
A second trial was performed at a temperature of 185° C., with a resin containing 0.3 part of stabilizer, the samples being removed from the oven every 6 minutes over a period of 24 minutes, then every 3 minutes until the 42nd minute (or until carbonization).

[10] = Photostabilizing power, PVC plates exposed to the sun, GARDNER scale
Description: The photostabilizing power of the compounds of the invention was studied by exposing to the sun polyvinyl chloride plates which had been stabilized either by a dihydropyridine of the invention or by 2-phenyl-indole, or again by 2-(3'-methoxy-4'-hydroxy)-indole. This last product is an extremely valuable thermostabilizer for thermoplastic resins and is described in British Pat. No. 1,489,685.
The resin given hereunder was prepared by mixing on cylinders at 160° C.:
The plates of stabilized polyvinyl chloride, together with a plate which had not been stabilized, were stood in the sun under the same conditions and at the same time. Their colour was measured after 6 hours and 12 hours of exposure.
The coloration of the plates was determined according to two methods:
On the plates themselves, following the GARDNER scale, as in the section on thermostability,
The sign + means that the coloration lies between the lower unit and the upper half-unit. Thus, 3+ means that the coloration lies between 3 and 3.5. Similarly, the sign - means that the coloration lies between the lower half-unit and the upper unit.

[11] = Comparison with stabilizer G1, rigid co-polymer, 0.5 part, 185° C.
From the text: (b) Comparison with stabilizer G1
Stabilizer G1 is a mixture of 1,4-butanediol-β-aminocrotonate and of β-aminocrotonate of alcohols containing from 16 to 18 carbon atoms.

- Oxidation potential [4]: 0.73 ± 0.01 volts
Structure (SMILES): CC1=C(C(=O)OCc2ccccc2)CC(C(=O)OCc2ccccc2)=C(C)N1 [Compound 21, 2,6-Dimethyl-3,5-dicarbobenzyloxy-1,4-dihydropyridine]
- Colour in GARDNER degrees ([1]; After 24 hours): 1 GARDNER degrees
- Colour in GARDNER degrees ([1]; Time 0): 1 GARDNER degrees
- coloration, GARDNER scale ([2]; 0 min): 1
- coloration, GARDNER scale ([2]; 30 min): 1
- coloration, GARDNER scale ([2]; 40 min): 3
- coloration, GARDNER scale ([2]; 50 min): 8
- coloration, GARDNER scale ([2]; 60 min): 15
- Colour in GARDNER degrees ([3]; After 24 hours): 3.5 GARDNER degrees
- Colour in GARDNER degrees ([3]; Time 0): 1.5 GARDNER degrees
- coloration, GARDNER scale ([5]; 0 min): 1.5
- coloration, GARDNER scale ([5]; 3 min): 2
- coloration, GARDNER scale ([5]; 6 min): 2
- coloration, GARDNER scale ([5]; 9 min): 3
- coloration, GARDNER scale ([5]; 12 min): 7
- coloration, GARDNER scale ([5]; 15 min): 15
- coloration, GARDNER scale ([6]; 0 min): 1
- coloration, GARDNER scale ([6]; 10 min): 1
- coloration, GARDNER scale ([6]; 20 min): 2
- coloration, GARDNER scale ([6]; 30 min): 5
- coloration, GARDNER scale ([6]; 40 min): 6
- coloration, GARDNER scale ([6]; 50 min): 7
- coloration, GARDNER scale ([6]; 60 min): 12
- coloration, GARDNER scale ([7]; 0 min): 1
- coloration of the resins, in words [7]: considerably less
- coloration, GARDNER scale ([7]; 3 min): 1
- coloration, GARDNER scale ([7]; 6 min): 2
- coloration, GARDNER scale ([7]; 9 min): 3
- coloration, GARDNER scale ([7]; 12 min): 5.5
- coloration, GARDNER scale ([7]; 15 min): 14
- coloration, GARDNER scale ([7]; 18 min): Burnt
- coloration, GARDNER scale ([8]; 0 min): 1
- coloration, GARDNER scale ([8]; 2 min): 1
- coloration, GARDNER scale ([8]; 4 min): 2
- coloration, GARDNER scale ([8]; 6 min): 4
- coloration, GARDNER scale ([8]; 8 min): 11
- coloration, GARDNER scale ([8]; 10 min): 13
- coloration, GARDNER scale ([8]; 12 min): 17
- coloration, GARDNER scale ([9]; 0 min): 1
- coloration, GARDNER scale ([9]; 6 min): 1
- coloration, GARDNER scale ([9]; 12 min): 2
- coloration, GARDNER scale ([9]; 18 min): 10
- coloration, GARDNER scale ([9]; 24 min): 12
- coloration, GARDNER scale ([9]; 27 min): 12
- coloration, GARDNER scale ([9]; 30 min): 13
- coloration, GARDNER scale ([9]; 33 min): 14
- coloration, GARDNER scale ([9]; 36 min): Burnt
- Coloration of the plates GARDNER ([10]; exposure to sun 0): 1
- Coloration of the plates GARDNER ([10]; exposure to sun 6h): 1
- Coloration of the plates GARDNER ([10]; exposure to sun 12h): 1.5

- Oxidation potential [4]: 0.75 ± 0.01 volts
- thermostabilizing power compared to 2-phenyl-indole, in words ([7]; 210° C.): greatly superior to 2-phenyl-indole
Structure (SMILES): C=CCOC(=O)C1=C(C)NC(C)=C(C(=O)OCC=C)C1 [Compound 1, 2,6-Dimethyl-3,5-dicarboallyloxy-1,4-dihydropyridine]
- Colour in GARDNER degrees ([1]; After 24 hours): 1 GARDNER degrees
- Colour in GARDNER degrees ([1]; Time 0): 1 GARDNER degrees
- coloration, GARDNER scale ([2]; 0 min): 1
- coloration, GARDNER scale ([2]; 30 min): 2
- coloration, GARDNER scale ([2]; 40 min): 6
- coloration, GARDNER scale ([2]; 50 min): 12
- coloration, GARDNER scale ([2]; 60 min): 15
- Colour in GARDNER degrees ([3]; After 24 hours): 2 GARDNER degrees
- Colour in GARDNER degrees ([3]; Time 0): 1 GARDNER degrees
- coloration, GARDNER scale ([5]; 0 min): 1
- coloration, GARDNER scale ([5]; 3 min): 1
- coloration, GARDNER scale ([5]; 6 min): 2
- coloration, GARDNER scale ([5]; 9 min): 4
- coloration, GARDNER scale ([5]; 12 min): 10
- coloration, GARDNER scale ([6]; 0 min): 1
- coloration, GARDNER scale ([6]; 10 min): 1
- coloration, GARDNER scale ([6]; 20 min): 2
- coloration, GARDNER scale ([6]; 30 min): 4
- coloration, GARDNER scale ([6]; 40 min): 5.5
- coloration, GARDNER scale ([6]; 50 min): 6
- coloration, GARDNER scale ([6]; 60 min): 7
- coloration, GARDNER scale ([7]; 0 min): 1
- coloration of the resins, in words [7]: considerably less
- coloration, GARDNER scale ([7]; 3 min): 1
- coloration, GARDNER scale ([7]; 6 min): 2
- coloration, GARDNER scale ([7]; 9 min): 4
- coloration, GARDNER scale ([7]; 12 min): 7
- coloration, GARDNER scale ([7]; 15 min): Burnt
- coloration, GARDNER scale ([8]; 0 min): 1
- coloration, GARDNER scale ([8]; 2 min): 1
- coloration, GARDNER scale ([8]; 4 min): 2
- coloration, GARDNER scale ([8]; 6 min): 4
- coloration, GARDNER scale ([8]; 8 min): 8
- coloration, GARDNER scale ([8]; 10 min): 11
- coloration, GARDNER scale ([8]; 12 min): 12
- coloration, GARDNER scale ([8]; 14 min): 13
- coloration, GARDNER scale ([9]; 0 min): 1
- coloration, GARDNER scale ([9]; 6 min): 1
- coloration, GARDNER scale ([9]; 12 min): 3
- coloration, GARDNER scale ([9]; 18 min): 3
- coloration, GARDNER scale ([9]; 24 min): 5
- coloration, GARDNER scale ([9]; 27 min): 7
- coloration, GARDNER scale ([9]; 30 min): 10
- coloration, GARDNER scale ([9]; 33 min): 10.5
- coloration, GARDNER scale ([9]; 36 min): 11
- coloration, GARDNER scale ([9]; 39 min): 16
- coloration, GARDNER scale ([9]; 42 min): Burnt
- Coloration of the plates GARDNER ([10]; exposure to sun 0): 1
- Coloration of the plates GARDNER ([10]; exposure to sun 6h): 1
- Coloration of the plates GARDNER ([10]; exposure to sun 12h): 1.5
- coloration, GARDNER scale ([11]; 0 min): 1
- coloration, GARDNER scale ([11]; 2 min): 1
- coloration, GARDNER scale ([11]; 4 min): 2
- coloration, GARDNER scale ([11]; 6 min): 6
- coloration, GARDNER scale ([11]; 8 min): 10
- coloration, GARDNER scale ([11]; 10 min): 13
- coloration, GARDNER scale ([11]; 12 min): 17
